Numbers after ± are expanded uncertainties.
Key:
[1] = refractive index (Na D-line) (dimensionless); settings: 298.15 K; 101.33 kPa; Liquid
[2] = 101 kPa, Liquid, Linear variable-path acoustic interferometer
[3] = xn = mol fraction of the nth substance listed; settings: 101 kPa, Liquid, Linear variable-path acoustic interferometer

CC(C)CC(C)(C)C [2,2,4-trimethylpentane]
Settings | refractive index
[1] | 1.38905 ± 0.00021

[2]
Settings | speed of sound [m/s]
298.15 K | 1082.8 ± 1.8
308.15 K | 1041.1 ± 1.8
318.15 K | 1000 ± 1.8
328.15 K | 958.4 ± 1.8

CC(C)CC(C)(C)C [2,2,4-trimethylpentane] + COC(C)(C)C
[3], x2 = 0
Settings | speed of sound [m/s]
298.15 K | 1082.8 ± 1.8
308.15 K | 1041.1 ± 1.8
318.15 K | 1000 ± 1.8
328.15 K | 958.4 ± 1.8

CC(C)CC(C)(C)C [2,2,4-trimethylpentane] + Cc1ccccc1
speed of sound [m/s], [3]
Settings | 298.15 K | 308.15 K | 318.15 K | 328.15 K
x2 = 0 | 1082.8 ± 1.8 | 1041.1 ± 1.8 | 1000 ± 1.8 | 958.4 ± 1.8
x2 = 0.07776 | 1092.7 ± 1.8 | 1051.1 ± 1.8 | 1009.9 ± 1.8 | 969.3 ± 1.7
x2 = 0.1405 | 1101.3 ± 1.8 | 1059.7 ± 1.8 | 1018.5 ± 1.7 | 977.9 ± 1.7
x2 = 0.2059 | 1110.8 ± 1.8 | 1069.2 ± 1.7 | 1028.1 ± 1.7 | 987.5 ± 1.7
x2 = 0.2671 | 1120.3 ± 1.8 | 1078.7 ± 1.7 | 1037.6 ± 1.7 | 997 ± 1.7
x2 = 0.3385 | 1132.3 ± 1.7 | 1090.7 ± 1.7 | 1049.5 ± 1.7 | 1008.8 ± 1.7
x2 = 0.3976 | 1143 ± 1.7 | 1101.3 ± 1.7 | 1060.1 ± 1.7 | 1019.4 ± 1.7
x2 = 0.4724 | – | 1115.6 ± 1.7 | 1074.3 ± 1.7 | –
x2 = 0.5328 | 1170 ± 1.7 | – | 1086.9 ± 1.7 | 1046.1 ± 1.7
x2 = 0.5966 | 1184.2 ± 1.7 | 1142.3 ± 1.7 | 1100.9 ± 1.7 | 1060 ± 1.6
x2 = 0.6699 | 1201.9 ± 1.7 | 1159.9 ± 1.7 | 1118.4 ± 1.7 | 1077.5 ± 1.6
x2 = 0.7302 | 1217.5 ± 1.7 | 1175.4 ± 1.7 | – | 1092.8 ± 1.6
x2 = 0.7895 | – | – | 1150.3 ± 1.7 | –
x2 = 0.8001 | 1237.5 ± 1.7 | 1195.3 ± 1.7 | 1153.6 ± 1.7 | 1112.4 ± 1.6
x2 = 0.8681 | 1258.4 ± 1.7 | 1216.1 ± 1.7 | 1174.2 ± 1.7 | 1132.8 ± 1.6
x2 = 0.8691 | 1259 ± 1.7 | – | – | –
x2 = 0.9539 | 1288.1 ± 1.7 | 1245.4 ± 1.7 | 1203.3 ± 1.7 | –

COC(C)(C)C [2-methoxy-2-methylpropane]
Settings | refractive index
[1] | 1.36648 ± 0.00012

[2]
Settings | speed of sound [m/s]
298.15 K | 1036.4 ± 1.6
308.15 K | 990.8 ± 1.5
318.15 K | 945.3 ± 1.5
